According to patent US20080241177A1 (priority 2003, published 2008):
Entries after “also recorded” stand apart in the source; their conditions may differ.

Assays:
serum antibodies [1] = assay: ELISA for serum antibodies specific for the individual vaccine peptides, human sera; conditions: for Number of individuals with a humoral response to the vaccine peptides, Cancer controls n = 54 / Percent of individuals with a humoral response to the vaccine peptides, Cancer controls n = 54: non-trial cancer controls, sera 1:25 dilution; for Number of individuals with a humoral response to the vaccine peptides, Trial subjects n = 6 / Percent of individuals with a humoral response to the vaccine peptides, Trial subjects n = 6: trial subjects who completed four vaccinations, detectable response at any time point considered positive
serum antibodies [2] = assay: Immunization of sheep with the vaccine, anti-peptide ELISA; conditions: for Response higher in the first immunized sheep, on average: first versus second sheep; for Polyclonal sera with reactivity to peptide obtained from immunized sheep: 200 μg peptide mixture in CpG DNA adjuvant, prime and boost; for Response to peptide using the polyclonal sheep sera or rabbit sera: polyclonal sheep sera (FIG. 2A) or rabbit sera (data not shown)
[3] = Delayed type hypersensitivity (DTH) testing; type: in vivo, human; conditions: for Induration area, DTH testing: 48 hours following intradermal injection of individual peptide, after four vaccinations; for Number of patients with a peptide-specific DTH response: six trial patients who underwent DTH testing
Procedure: Delayed type hypersensitivity (DTH) testing was carried out 1 month after the final vaccination. […] Induration of […]10 mm^2 at 48 hours after injection was considered positive.

[4] = normal controls, n = 30, not vaccinated

Row | Substance | Number of individuals with a humoral response to the vaccine peptides, Cancer controls n = 54 (serum antibodies [1]) | Number of individuals with a humoral response to the vaccine peptides, Normal controls n = 30 (serum antibodies [1]; [4]) | Number of individuals with a humoral response to the vaccine peptides, Trial subjects n = 6 (serum antibodies [1]) | Response higher in the first immunized sheep, on average (serum antibodies [2]) [%] | Polyclonal sera with reactivity to peptide obtained from immunized sheep (serum antibodies [2]; two sheep) | Induration area, DTH testing ([3]; patient 012) | Induration area, DTH testing ([3]; patient 014) | Induration area, DTH testing ([3]; patient 015) | Induration area, DTH testing ([3]; patient 016) | Induration area, DTH testing ([3]; patient 017) | Induration area, DTH testing ([3]; patient 018) | Number of patients with a peptide-specific DTH response [3] | Response to peptide using the polyclonal sheep sera or rabbit sera (serum antibodies [2]) | further results
1 | H-AVYYCLLQALKHWGQGT-OH [Peptide 2, Heavy CDR3 of human anti-p53 antibody with N-terminus specificity] | 1 | 0 | 4 | 50 | obtained from both sheep | 189 mm^2 | 20 mm^2 | 86 mm^2 | Neg (Neg indicates that induration (if any) was less than 10 mm^2) | 71 mm^2 | 38 mm^2 | five | – | Percent of individuals with a humoral response to the vaccine peptides, Cancer controls n = 54 (serum antibodies [1]): 1.9%; Isotype of peptide-specific serum antibodies (serum antibodies [1]; subject 012): IgG1; Isotype of peptide-specific serum antibodies (serum antibodies [1]; subject 014): IgG1 and IgG3; Isotype of peptide-specific serum antibodies (serum antibodies [1]; subject 015): IgG1 and IgG3; Isotype of peptide-specific serum antibodies (serum antibodies [1]; subject 016): IgG4; Percent of individuals with a humoral response to the vaccine peptides, Trial subjects n = 6 (serum antibodies [1]): 66.7%; Number of individuals with a humoral response to the vaccine peptides, Trial subjects n = 6 (serum antibodies [1]; listed as peptide 2): four of the six
2 | H-PKLLIYKASSLESGVPSR-OH [HIV-L2, reference compound] | – | – | – | – | – | Neg (Neg indicates that induration (if any) was less than 10 mm^2) | Neg (Neg indicates that induration (if any) was less than 10 mm^2) | Neg (Neg indicates that induration (if any) was less than 10 mm^2) | Neg (Neg indicates that induration (if any) was less than 10 mm^2) | Neg (Neg indicates that induration (if any) was less than 10 mm^2) | Neg (Neg indicates that induration (if any) was less than 10 mm^2) | – | – | –
3 | H-LLIYLGSTRASGVPDR-OH [Peptide 7, Light CDR2 of human anti-p53 antibody with central domain specificity] | 1 | 0 | 0 | – | neither animal; also recorded: could not be generated | 16 mm^2 | Neg (Neg indicates that induration (if any) was less than 10 mm^2) | Neg (Neg indicates that induration (if any) was less than 10 mm^2) | 39 mm^2 | Neg (Neg indicates that induration (if any) was less than 10 mm^2) | Neg (Neg indicates that induration (if any) was less than 10 mm^2) | two | positive responses | Percent of individuals with a humoral response to the vaccine peptides, Cancer controls n = 54 (serum antibodies [1]): 1.9%; Number of individuals with a humoral response to the vaccine peptides, Trial subjects n = 6 (serum antibodies [1]; listed as peptide 7): No patient demonstrated a response
4 | H-GVYYCMQGLQTPYTFGEGT -OH (H-GVYYCMQGLQTPYTFGEGT-OH) [Peptide 8, Light CDR3 of human anti-p53 antibody with central domain specificity] | 0 | 0 | 2 | – | obtained from both sheep | 113 mm^2 | Neg (Neg indicates that induration (if any) was less than 10 mm^2) | 38 mm^2 | Neg (Neg indicates that induration (if any) was less than 10 mm^2) | 44 mm^2 | Neg (Neg indicates that induration (if any) was less than 10 mm^2) | three | – | Isotype of peptide-specific serum antibodies (serum antibodies [1]; subject 012): undetectable; Isotype of peptide-specific serum antibodies (serum antibodies [1]; subject 015): undetectable; Percent of individuals with a humoral response to the vaccine peptides, Trial subjects n = 6 (serum antibodies [1]): 33.3%; Number of individuals with a humoral response to the vaccine peptides, Trial subjects n = 6 (serum antibodies [1]; listed as peptide 8): two; Serum antibody titres, first versus second immunized sheep (serum antibodies [2]; two sheep): equivalent
5 | H-AGLFCQQYYTTPLTFGGGT-OH [Peptide 4, Light CDR3 of human anti-p53 antibody with N-terminus specificity] | 0 | 0 | 0 | 50 | obtained from both sheep | Neg (Neg indicates that induration (if any) was less than 10 mm^2) | Neg (Neg indicates that induration (if any) was less than 10 mm^2) | 13 mm^2 | Neg (Neg indicates that induration (if any) was less than 10 mm^2) | Neg (Neg indicates that induration (if any) was less than 10 mm^2) | Neg (Neg indicates that induration (if any) was less than 10 mm^2) | one | positive responses | Number of individuals with a humoral response to the vaccine peptides, Trial subjects n = 6 (serum antibodies [1]; listed as peptide 4): No patient demonstrated a response
6 | H-KLLIHWASTRESGVPDR-OH [Peptide 3, Light CDR2 of human anti-p53 antibody with N-terminus specificity] | 0 | 1 | 0 | – | neither animal; also recorded: could not be generated | – | – | – | – | – | – | responses were observed in at least one individual for all of the peptides, except for peptides 3 and 6 | positive responses | Percent of individuals with a humoral response to the vaccine peptides, Normal controls n = 30 (serum antibodies [1]; [4]): 3.3%; Number of individuals with a humoral response to the vaccine peptides, Trial subjects n = 6 (serum antibodies [1]; listed as peptide 3): No patient demonstrated a response
7 | H-YFCSRVKAGGPDYWGQGT-OH [Peptide 6, Heavy CDR3 of human anti-p53 antibody with central domain specificity] | 0 | 0 | 0 | 50 | obtained from both sheep | – | – | – | – | – | – | responses were observed in at least one individual for all of the peptides, except for peptides 3 and 6 | positive responses | Number of individuals with a humoral response to the vaccine peptides, Trial subjects n = 6 (serum antibodies [1]; listed as peptide 6): No patient demonstrated a response
